# Reference: US7417156B2, “Orally active, antimalarial, anticancer, artemisinin-derived trioxane dimers” (Johns Hopkins University, priority 2002, dated 2008)
# Legend:
# 60 cell line panel = format: cell-based
# HOP-92 = experiment: NCI 60 cell line panel screen (SRB); format: cell-based, human
# NCI-H23 = experiment: NCI 60 cell line panel screen (SRB); format: cell-based, human; conditions: NCI-H23 (Non-Small Cell Lung Cancer); TGI: PG=0
# NCI-H322M = format: cell-based
# NCI-H460 = experiment: NCI 60 cell line panel screen (SRB); format: cell-based, human; conditions: NCI-H460 (Non-Small Cell Lung Cancer); TGI: PG=0
# COLO 205 = experiment: NCI 60 cell line panel screen (SRB); format: cell-based, human; conditions: COLO 205 (Colon Cancer); TGI: PG=0
# HCT-116 = experiment: NCI 60 cell line panel screen (SRB); format: cell-based, human; conditions: HCT-116 (Colon Cancer); TGI: PG=0
# HCT-15 = experiment: NCI 60 cell line panel screen (SRB); format: cell-based, human; conditions: HCT-15 (Colon Cancer); TGI: PG=0
# KM12 = experiment: NCI 60 cell line panel screen (SRB); format: cell-based, human; conditions: KM12 (Colon Cancer); TGI: PG=0
# MALME-3M = experiment: NCI 60 cell line panel screen (SRB); format: cell-based, human; conditions: MALME-3M (Melanoma); TGI: PG=0
# M14 = experiment: NCI 60 cell line panel screen (SRB); format: cell-based, human
# SK-MEL-2 = experiment: NCI 60 cell line panel screen (SRB); format: cell-based, human
# SK-MEL-28 = experiment: NCI 60 cell line panel screen (SRB); format: cell-based, human
# IGROVI = experiment: NCI 60 cell line panel screen (SRB); format: cell-based, human
# OVCAR-5 = experiment: NCI 60 cell line panel screen (SRB); format: cell-based, human; conditions: OVCAR-5 (Ovarian Cancer); TGI: PG=0
# 786-0 = experiment: NCI 60 cell line panel screen (SRB); format: cell-based, human
# TK-10 = experiment: NCI 60 cell line panel screen (SRB); format: cell-based, human
# UO-31 = experiment: NCI 60 cell line panel screen (SRB); format: cell-based, human
# PC-3 = experiment: NCI 60 cell line panel screen (SRB); format: cell-based, human; conditions: PC-3 (Prostate Cancer); TGI: PG=0
# HS 578T = experiment: NCI 60 cell line panel screen (SRB); format: cell-based, human
# MDA-MB-435 = experiment: NCI 60 cell line panel screen (SRB); format: cell-based, human
# T-47D = experiment: NCI 60 cell line panel screen (SRB); format: cell-based, human; conditions: T-47D (Breast Cancer); TGI: PG=0
# [1] = mean value over the 60 cell line panel
structure (smiles),measurement,setting,value
"CC1CCC2C(C)C(CC(COCC(=O)O)CC3OC4OC5(C)CCC6C(C)CCC(C3C)C46OO5)OC3OC4(C)CCC1C32OO4 (stereo not drawn) [Compound 12b, bis-trioxane O-acetic acid]",Log10GI50 Delta,60 cell line panel,1.57
same,Log10GI50 Range,60 cell line panel,4.00
same,Log10LC50 Delta,60 cell line panel; 60 cell line panel,0.70
same,Log10LC50 Range,60 cell line panel; 60 cell line panel,0.72
same,Log10TGI50 Delta,60 cell line panel; 60 cell line panel,3.49
same,Log10TGI50 Range,60 cell line panel; 60 cell line panel,4.00
same,growth inhibition in words,"60 cell line panel; colon cancer KM12, ovarian cancer OVCAR 3, breast cancer MDA-MB-435",selectively and strong inhibitory
same,Log10GI50 MG MID,60 cell line panel; mean over panel,−6.73
same,Log10LC50 MG MID,60 cell line panel; [1],−4.32 log10M
same,Log10TGI50 MG MID,60 cell line panel; [1],−4.81 log10M
same,Log10TGI50,"HOP-92; HOP-92 (Non-Small Cell Lung Cancer), TGI: PG=0",>−4.30 log10M
same,Log10GI50,"HOP-92; Non-Small Cell Lung Cancer, HOP-92",−7.00
same,Log10TGI50,NCI-H23,>−4.30 log10M
same,Log10TGI50,"NCI-H322M; NCI-H322M (Non-Small Cell Lung Cancer), TGI: PG=0",>−4.30 log10M
same,Log10GI50,"NCI-H322M; Non-Small Cell Lung Cancer, NCI-H322M",−5.03
same,Log10TGI50,NCI-H460,>−4.30 log10M
same,Log10TGI50,COLO 205,−5.28 log10M
same,Log10TGI50,HCT-116,>−4.30 log10M
same,Log10TGI50,HCT-15,−5.00 log10M
same,Log10TGI50,KM12,<−8.30 log10M
same,Log10TGI50,MALME-3M,−6.40 log10M
same,Log10TGI50,"M14; M-14 (Melanoma), TGI: PG=0",>−4.30 log10M
same,Log10GI50,"M14; Melanoma, M14",−6.68
same,Log10GI50,"SK-MEL-2; Melanoma, SK-MEL-2",−5.62
same,Log10TGI50,"SK-MEL-2; SK-MEL-2 (Melanoma), TGI: PG=0",>−4.30 log10M
same,Log10GI50,"SK-MEL-28; Melanoma, SK-MEL-28",−4.92
same,Log10TGI50,"SK-MEL-28; SK-MEL-28 (Melanoma), TGI: PG=0",>−4.30 log10M
same,Log10TGI50,"IGROVI; IGROVI (Ovarian Cancer), TGI: PG=0",>−4.30 log10M
same,Log10GI50,"IGROVI; Ovarian Cancer, IGROVI",−5.06
same,Log10TGI50,OVCAR-5,−6.39 log10M
same,Log10TGI50,"786-0; 786-0 (Renal Cancer), TGI: PG=0",>−4.30 log10M
same,Log10GI50,"786-0; Renal Cancer, 786-0",−6.59
same,Log10GI50,"TK-10; Renal Cancer, TK-10",−7.22
same,Log10TGI50,"TK-10; TK-10 (Renal Cancer), TGI: PG=0",−5.22 log10M
same,Log10GI50,"UO-31; Renal Cancer, UO-31",−5.84
same,Log10TGI50,"UO-31; UO-31 (Renal Cancer), TGI: PG=0",>−4.30 log10M
same,Log10TGI50,PC-3,−4.92 log10M
same,Log10GI50,"HS 578T; Breast Cancer, HS 578T",>−4.30
same,Log10TGI50,"HS 578T; HS 578T (Breast Cancer), TGI: PG=0",>−4.30 log10M
same,Log10GI50,"MDA-MB-435; Breast Cancer, MDA-MB-435",−6.97
same,Log10TGI50,"MDA-MB-435; MDA-MB-435 (Breast Cancer), TGI: PG=0",>−4.30 log10M
same,Log10TGI50,T-47D,>−4.30 log10M
